According to patent US6673039B1, “Compositions, kits, methods, and apparatus for transvascular delivery of a composition to an extravascular tissue of a mammal” (Trustees of the University of Pennsylvania, priority 1997, dated 2004):

Test system: skeletal muscle capillaries
Experiment: Microvascular perfusion viewed in real time through a dissecting microscope after topical application
Format: in vivo, mouse
Source text: Newborn mice pups were anesthetized after feeding to ensure a stomach filled with milk, for the purpose of providing optical contrast. […] Histamine, papaverine, or both, dissolved in PBS, were applied topically to the capillaries. Video recordings were made against a time line with an attached camera.

Structure (SMILES)	effect on microvascular perfusion (10 millimolar)	effect on microvascular perfusion (300 micrograms per milliliter)
NCCc1c[nH]cn1 [histamine]	rapidly induced vasodilation, and was followed within seconds by progressive capillary stasis	–
COc1ccc(Cc2nccc3cc(OC)c(OC)cc23)cc1OC [papaverine]	–	capillary recruitment and increased local perfusion
